Experiments:
A549 [1] = experiment: Antiproliferative MTT assay, 72 h; format: cell-based; conditions: Homo sapiens, 6 × 10^3 cells/well, non-small cell lung cancer
Protocol: (§1) Antiproliferative Assays: The antiproliferative effect of the compounds was tested in decreasing serial dilutions of compounds (starting with 100 µM, then two-fold serial dilution) on human cell lines (Colo 205, Colo 320, MCF-7, A549, and MRC-5) in 96-well flat-bottomed microtiter plates. Firstly, the compounds were diluted in 100 µL of the medium, and then, 6 × 10^3 cells (Colo 205, Colo 320) in 100 µL of RPMI medium were added to each well, excluding the medium control wells. The adherent MCF-7, A549, and MRC-5 cells (6 × 10^3 cells/well) were seeded in EMEM medium for at least 4 h before the assay. The two-fold serial dilutions of the compounds were made in a separate plate (100–0.19 μM) and then transferred to the plates containing the adherent-corresponding cell line. […] The percentage of inhibition of cell growth was determined according to Equation (1), and expressed as IC50 values, defined as the concentration that induces 50% growth inhibition. IC50 values and the standard deviation (SD) of triplicate experiments were calculated using GraphPad Prism 5 software for Windows. Doxorubicin (2 mg/mL, Teva Pharmaceuticals, Budapest, Hungary) was used as a positive control and the vehicle DMSO as the negative control (Table 3). (1) […][ODsample−ODmedium control/ODcell control−ODmedium control]×100

Colo 320 [2] = experiment: Antiproliferative MTT assay, 72 h; format: cell-based; conditions: Homo sapiens, 6 × 10^3 cells/well, resistant colon adenocarcinoma
Protocol: as §1

MRC-5 = experiment: Antiproliferative MTT assay, 72 h; format: cell-based; conditions: Homo sapiens, MRC5, 6 × 10^3 cells/well, normal embryonic lung fibroblast
Protocol: as §1

Colo 205 [3] = experiment: Antiproliferative MTT assay, 72 h; format: cell-based, human; conditions: for IC50: MTT, 72 h, 6 × 10^3 cells/well, sensitive colon adenocarcinoma; for Selectivity index (SI), Colo 205: antiproliferative assay, Colo 205 versus non-cancerous MRC-5
Protocol: as §1

MCF-7 [4] = experiment: Antiproliferative MTT assay, 72 h; format: cell-based, human; conditions: for IC50: Homo sapiens, MCF7, MTT, 72 h, 6 × 10^3 cells/well, breast cancer; for Selectivity index (SI), MCF-7: antiproliferative assay, MCF-7 versus non-cancerous MRC-5
Protocol: as §1

treated cancer cells = experiment: Antiproliferative MTT assay, summary over cancer cell lines; format: cell-based, human; conditions: versus MRC-5
Protocol: as §1

in vitro = conditions: human
Protocol: (§2) Cell Line Cultures: The human colon adenocarcinoma cell lines, Colo 205 (ATCC-CCL-222) doxorubicin-sensitive parent and Colo320/MDR-LRP (ATCC-CCL-220.1) doxorubicin resistant expressing ABCB1, were purchased from LGC Promochem (Teddington, UK). The cells were cultured in RPMI-1640 medium supplemented with 10% heat-inactivated fetal bovine serum (FBS), 2 mM L-glutamine, 1 mM Na-pyruvate, 100 mM HEPES. The MRC-5 (ATCC CCL-171) human embryonic lung fibroblast cell line and the hormone-responsive breast cancer cell line MCF-7 (ATCC HTB-22) were purchased from Sigma-Aldrich (Merck KGaA, Darmstadt, Germany). The MCF-7 and MRC-5 cells were cultured in Eagle’s Minimal Essential Medium (EMEM) containing 4.5 g/L of glucose and supplemented with a non-essential amino acid mixture, a selection of vitamins, and 10% FBS. The cell lines were incubated at 37 °C, 5% CO2, and 95% air atmosphere. The cells were detached with Trypsin-Versene (EDTA) solution for 5 min at 37 °C. The human non-small cell lung cancer cell line A549 was kindly provided by Brigitte Marian (Institute of Cancer Research, Department of Medicine I, Medical University of Vienna, Austria). A549 cells were grown in Eagle’s Minimal Essential Medium (EMEM) supplemented with 10% heat-inactivated fetal bovine serum.
(§3) Assay for Cytotoxic Effect: The effects of increasing concentrations of the compounds on cell growth were tested in 96-well flat-bottomed microtiter plates, as described for the antiproliferative assay, using 1 × 10^4 cells/well. The culture plates were incubated at 37 °C for 24 h; at the end of the incubation period, 20 μL of MTT solution (from a 5 mg/mL stock solution) was added to each well. After incubation at 37 °C for 4 h, 100 μL of sodium dodecyl sulfate (SDS) solution (10% SDS in 0.01 M HCl) was added to each well, and the plates were further incubated at 37 °C overnight. Cell growth was determined by measuring the optical density (OD) at 540 nm (ref 630 nm) with a Multiscan EX ELISA reader (Thermo Labsystems, Cheshire, WA, USA).
(§4) Sample preparation: The compounds were dissolved in DMSO to achieve the final concentration of 5 mM. The starting concentration of the compounds was 100 µM and 2-fold serial dilutions were prepared for the antiproliferative and cytotoxic assays. The following concentrations were used: 100-50-25-12.5-6.25-3.125-1.56-0.78-0.39-0.195 µM.

Colo 205 [5] = experiment: Cytotoxic MTT assay, 24 h; conditions: Homo sapiens, COLO 205, 24 h, read-out: Cytotoxic activity IC50 Colo 205 (A) Mean
Protocol: as §2, §3, §4

Colo 320 [6] = experiment: Cytotoxic MTT assay, 24 h; conditions: for IC50: Homo sapiens, COLO 320, 24 h, read-out: Cytotoxic activity IC50 Colo 320 (B) Mean; for RR (relative resistance ratio) (B/A): IC50 resistant (Colo 320)/IC50 sensitive (Colo 205), cytotoxic assay
Protocol: as §2, §3, §4

MCF-7 [7] = experiment: Cytotoxic MTT assay, 24 h; conditions: Homo sapiens, MCF7, 24 h, read-out: Cytotoxic activity IC50 MCF-7 Mean
Protocol: as §2, §3, §4

A549 [8] = experiment: Cytotoxic MTT assay, 24 h; conditions: Homo sapiens, A549, 24 h, read-out: Cytotoxic activity IC50 A549 Mean
Protocol: as §2, §3, §4

MCF-7 [9] = tested on: MCF-7
Protocol: as §2, §3, §4

[10] = Cytotoxic MTT assay, 24 h; conditions: human, MRC-5 embryonic lung fibroblast cells
Protocol: as §2, §3, §4

[11] = tested on: sensitive (Colo 205) colon adenocarcinoma cells; design: method as in PMID 35293752; conditions: read-out: Cytotoxic activity IC50 Colo 205; cited from earlier work
[12] = tested on: resistant colon adenocarcinoma cells (Colo 320); design: method as in PMID 35293752; conditions: read-out: Cytotoxic activity IC50 Colo 320; cited from earlier work
[13] = tested on: p-glycoprotein (ABCB1) efflux pump; design: method as in PMID 35293752; conditions: resistant Colo 320 cells; cited from earlier work
Colo 320 cells = tested on: Colo 320 cells; design: method as in PMID 35293752; conditions: checkerboard method; cited from earlier work
5-LOX = tested on: 5-LOX; design: method as in PMID 36279964; conditions: read-out: IC50 against 5-LOX; cited from earlier work
COX-2 = tested on: COX-2; design: method as in PMID 36279964; conditions: read-out: IC50 against COX-2; cited from earlier work

## COC(=O)CC(C)(O)CC(=O)OC1C(O)CC2(C)C3=C(C(=O)CC2C1(C)C)C1(C)CCC(C(C)CCC(=O)C(C)(C)O)C1(C)CC3 (stereo not drawn) [Compound 1, pholiol L]
A549 [1]
  IC50: 53.7 µM
Colo 320 [2]
  IC50: 28.1 µM
MRC-5
  IC50: 70.9 µM
Colo 205 [3]; Homo sapiens, COLO 205, 72 h
  IC50: 32.4 µM
MCF-7 [4]
  IC50: 21.7 µM
Treated cancer cells
  Selectivity to cancerous cell lines over normal cells: did not display selectivity
In vitro
  IC50 at 24 h: 66.1 µM
Colo 205 [5]
  IC50: 40.3 µM
Colo 320 [6]
  IC50: 33.9 µM
  RR (relative resistance ratio) (B/A): 0.84
MCF-7 [7]
  IC50: 43.7 µM
A549 [8]
  IC50: 93.6 µM

## COC(=O)CC(C)(O)CC(=O)OC1CC2(C)C3=C(C(=O)CC2C(C)(C)C1OC(C)=O)C1(C)CCC(C(C)CCC(=O)C(C)(C)O)C1(C)CC3O (stereo not drawn) [Compound 2, pholiol M]
A549 [1]
  IC50: > 100 µM
Colo 320 [2]
  IC50: 32.5 µM
MRC-5
  IC50: > 100 µM
Colo 205 [3]; Homo sapiens, COLO 205, 72 h
  IC50: 23.9 µM
Colo 205 [3]
  Selectivity index (SI), Colo 205: > 4.18
MCF-7 [4]
  IC50: 2.48 µM
  Selectivity index (SI), MCF-7: > 40
MCF-7 [9]
  Cytotoxic activity IC50 MCF-7 Mean: did not show a cytotoxic effect
In vitro
  IC50 at 24 h: > 100 µM
Colo 205 [5]
  IC50: 35.9 µM
Colo 320 [6]
  IC50: 67.2 µM
  RR (relative resistance ratio) (B/A): 1.87
MCF-7 [7]
  IC50: > 100 µM
A549 [8]
  IC50: 58.1 µM

## COC(=O)C[C@@](C)(O)CC(=O)O[C@@H]1C[C@]2(C)C3=C(C(=O)C[C@H]2C(C)(C)[C@H]1OC(C)=O)[C@]1(C)CC[C@H]([C@H](C)CCC(=O)C(C)(C)O)[C@@]1(C)CC3=O [Compound 4, pholiol O]
A549 [1]
  IC50: 51.5 µM
Colo 320 [2]
  IC50: 42.1 µM
MRC-5
  IC50: 42.9 µM
Colo 205 [3]; Homo sapiens, COLO 205, 72 h
  IC50: 23.3 µM
Colo 205 [3]
  IC50: 23.4 µM
  Selectivity index (SI), Colo 205: 1.8
MCF-7 [4]
  IC50: 9.95 µM
  Selectivity index (SI), MCF-7: 4.3
MCF-7 [9]
  Cytotoxic activity IC50 MCF-7 Mean: did not show a cytotoxic effect
In vitro
  IC50 at 24 h: 58 µM
Colo 205 [5]
  IC50: 31.5 µM
Colo 320 [6]
  IC50: 91.5 µM
  RR (relative resistance ratio) (B/A): 2.90
MCF-7 [7]
  IC50: > 100 µM
A549 [8]
  IC50: 56.9 µM

## CC(=O)O[C@H]1[C@H](OC(=O)C[C@](C)(O)CC(=O)O)C[C@]2(C)C3=CC[C@]4(C)[C@@H]([C@H](C)CCC(=O)C(C)(C)O)CC[C@@]4(C)C3=CC[C@H]2C1(C)C [Compound 6, pholiol Q]
A549 [1]
  IC50: 51.2 µM
Colo 320 [2]
  IC50: 69.2 µM
MRC-5
  IC50: > 100 µM
Colo 205 [3]; Homo sapiens, COLO 205, 72 h
  IC50: 50 µM
MCF-7 [4]
  IC50: 46.3 µM
Treated cancer cells
  Selectivity to cancerous cell lines over normal cells: did not display selectivity
In vitro
  IC50 at 24 h: > 100 µM
Colo 205 [5]
  IC50: 56.1 µM
Colo 320 [6]
  IC50: 34.7 µM
  RR (relative resistance ratio) (B/A): 0.62
MCF-7 [7]
  IC50: 43.8 µM
A549 [8]
  IC50: 85.9 µM

## COC(=O)C[C@@](C)(O)CC(=O)O[C@@H]1C[C@]2(C)C3=C(C(=O)C[C@H]2C(C)(C)[C@H]1OC(C)=O)[C@]1(C)CC[C@H]([C@H](C)CCC(=O)O)[C@@]1(C)CC3 [Compound 8, pholiol S]
A549 [1]
  IC50: 89.8 µM
Colo 320 [2]
  IC50: 68.5 µM
MRC-5
  IC50: > 100 µM
Colo 205 [3]; Homo sapiens, COLO 205, 72 h
  IC50: 59.9 µM
MCF-7 [4]
  IC50: 35.3 µM
Treated cancer cells
  Selectivity to cancerous cell lines over normal cells: did not display selectivity
In vitro
  IC50 at 24 h: 55.3 µM
Colo 205 [5]
  IC50: 57.5 µM
Colo 320 [6]
  IC50: 57.5 µM
  RR (relative resistance ratio) (B/A): 1.0
MCF-7 [7]
  IC50: 43 µM
A549 [8]
  IC50: 83.7 µM

## COc1cccc2c1C(=O)c1c(O)c3c(c(O)c1C2=O)C[C@@](O)(C(=O)CO)C[C@@H]3O[C@H]1C[C@H](N)[C@H](O)[C@H](C)O1 [Dox, doxorubicin, reference compound]
A549 [1]
  IC50: 1.04 µM
Colo 320 [2]
  IC50: 0.25 µM
MRC-5
  IC50: 0.52 µM
Colo 205 [3]; Homo sapiens, COLO 205, 72 h
  IC50: 0.0617 µM
MCF-7 [4]
  IC50: 0.155 µM
Colo 205 [5]
  IC50: 3.32 µM
Colo 320 [6]
  IC50: 12 µM
  RR (relative resistance ratio) (B/A): 3.60
MCF-7 [7]
  IC50: 5.73 µM
A549 [8]
  IC50: 10.2 µM
[10]
  IC50 at 24 h: 3.6 µM

## CC(C)[C@@H](C)/C=C/[C@@H](C)[C@H]1CC[C@H]2C3=CC=C4C[C@@H](O)CC[C@]4(C)[C@H]3CC[C@]12C [Ergosterol]
[11]
  IC50: 4.9 µM
[12]
  IC50: 6.5 µM

## COC(=O)C[C@@](C)(O)CC(=O)O[C@@H]1C[C@]2(C)C3=C(C(=O)C[C@H]2C(C)(C)[C@H]1OC(C)=O)[C@]1(C)CC[C@H]([C@H](C)CCC(=O)C(C)(C)O)[C@@]1(C)CC3 [pholiol B]
[13]
  p-glycoprotein (ABCB1) efflux pump inhibitory activity: inhibitory activity was found
Colo 320 cells
  Drug interaction with doxorubicin: interacted in a synergistic manner

## COC(=O)C[C@@](C)(O)CC(=O)O[C@@H]1C[C@]2(C)C3=C(CC[C@H]2C(C)(C)[C@H]1OC(C)=O)[C@]1(C)CC[C@H]([C@H](C)CCC(=O)C(C)(C)O)[C@@]1(C)[C@H](O)C3 [pholiol D]
Colo 320 cells
  Drug interaction with doxorubicin: interacted in a synergistic manner

## Pholiol F
5-LOX
  IC50: 194 µM
COX-2
  IC50: 440 µM

## pholiol A
[13]
  p-glycoprotein (ABCB1) efflux pump inhibitory activity: inhibitory activity was found

Reference: publication PMC9862111, “Isolation of the Lanostane Triterpenes Pholiols L–S from Pholiota populnea and Evaluation of Their Antiproliferative and Cytotoxic Activities” (Pharmaceuticals, 2023)
